ChEMBL document CHEMBL4130445, “TNF-α and IL-6 inhibitors: Conjugates of N-substituted indole and aminophenylmorpholin-3-one as anti-inflammatory agents” (Eur J Med Chem, 2017)
The source made the active and inactive calls. The calls are words filed in the database; no cut-off is given here.

How the values were obtained:
BV-2 [1] = assay: Cytotoxicity in mouse BV2 cells assessed as reduction in cell viability incubated for 48 hrs by MTT assay; format: cell-based; details: BV-2, 48 h
BV-2 [2] = assay: Suppression of LPS-induced morphological changes in mouse BV2 cells at 5 uM pre-incubated before LPS stimulation by phase contrast microscopy; format: functional, cell-based
BV-2 [3] = assay: Suppression of LPS-induced morphological changes in mouse BV2 cells at 10 uM pre-incubated before LPS stimulation by phase contrast microscopy; format: functional, cell-based
[4] = biological target: T1, Prostaglandin G/H synthase 2 (Homo sapiens) (UniProt P35354); assay: Inhibition of COX2 (unknown origin) by immunoassay
T1 sequence (whole entry): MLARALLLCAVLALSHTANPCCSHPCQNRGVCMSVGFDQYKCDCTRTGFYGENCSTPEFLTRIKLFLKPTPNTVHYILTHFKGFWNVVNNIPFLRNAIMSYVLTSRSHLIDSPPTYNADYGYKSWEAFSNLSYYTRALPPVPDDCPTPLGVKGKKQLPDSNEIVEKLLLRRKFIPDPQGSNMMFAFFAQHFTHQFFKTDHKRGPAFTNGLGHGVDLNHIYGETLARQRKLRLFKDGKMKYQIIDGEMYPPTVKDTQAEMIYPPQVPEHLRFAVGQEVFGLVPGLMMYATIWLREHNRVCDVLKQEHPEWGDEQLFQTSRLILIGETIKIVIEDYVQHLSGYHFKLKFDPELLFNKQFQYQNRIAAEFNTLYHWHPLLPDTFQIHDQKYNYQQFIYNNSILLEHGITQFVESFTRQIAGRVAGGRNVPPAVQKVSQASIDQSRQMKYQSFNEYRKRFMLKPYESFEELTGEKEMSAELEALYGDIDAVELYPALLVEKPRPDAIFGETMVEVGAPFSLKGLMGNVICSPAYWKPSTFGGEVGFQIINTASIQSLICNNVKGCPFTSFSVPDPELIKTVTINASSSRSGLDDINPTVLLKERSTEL

BV-2 [5] = assay: Inhibition of LPS-induced TNFalpha production in mouse BV2 cells at 10 uM pre-incubated before LPS stimulation by ELISA; format: functional
BV-2 [6] = assay: Inhibition of LPS-induced TNFalpha production in mouse BV2 cells at 20 uM pre-incubated before LPS stimulation by ELISA; format: functional
BV-2 [7] = assay: Inhibition of LPS-induced IL6 production in mouse BV2 cells at 10 uM pre-incubated before LPS stimulation by ELISA; format: functional
BV-2 [8] = assay: Inhibition of LPS-induced IL6 production in mouse BV2 cells at 20 uM pre-incubated before LPS stimulation by ELISA; format: functional
Mus musculus [9] = species: Mus musculus; assay: Inhibition of LPS-induced NFkappaB nuclear translocation in mouse BV2 cells pre-incubated before LPS stimulation by immunostaining based confocal laser microscopy; format: cell-based
[10] = biological target: Transcription factor Jun (Mus musculus) (UniProt P05627); assay: Inhibition of LPS-induced AP1 nuclear translocation in mouse BV2 cells pre-incubated before LPS stimulation by immunostaining based confocal laser microscopy; format: cell-based
Transcription factor Jun (Mus musculus), sequence (P05627 whole entry): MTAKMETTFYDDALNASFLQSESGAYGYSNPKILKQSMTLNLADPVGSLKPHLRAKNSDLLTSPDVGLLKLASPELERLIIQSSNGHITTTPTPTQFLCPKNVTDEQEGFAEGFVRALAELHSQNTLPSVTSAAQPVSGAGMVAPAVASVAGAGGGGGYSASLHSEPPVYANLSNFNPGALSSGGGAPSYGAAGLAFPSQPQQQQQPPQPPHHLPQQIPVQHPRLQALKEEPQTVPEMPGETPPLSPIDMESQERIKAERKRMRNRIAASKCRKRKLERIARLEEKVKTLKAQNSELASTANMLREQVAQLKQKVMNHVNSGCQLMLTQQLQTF

BV-2 [11] = assay: Inhibition of LPS-induced MMP9 production production in mouse BV2 cells pre-incubated before LPS stimulation by gelatin zymography; format: functional, cell-based
BV-2 [12] = assay: Inhibition of LPS-induced MMP2 production production in mouse BV2 cells pre-incubated before LPS stimulation by gelatin zymography; format: functional, cell-based
Mus musculus [13] = assay: Toxicity in Swiss albino mouse model of acetic acid induced writhing up to 2000 mg/kg, ip dosed 30 mins before acetic acid injection; format: organism-based; details: in vivo, 0.5 h
Mus musculus [14] = assay: Analgesic activity in Swiss albino mouse model of acetic acid induced writhing assessed as inhibition of pain response at 10 mg/kg, ip dosed 30 mins before acetic acid injection; format: functional
[15] = Cytotoxicity in mouse BV2 cells assessed as cell viability at 0.5 uM incubated for 48 hrs by MTT assay (reference value: 100%); format: cell-based, BV-2; details: read-out: Activity
[16] = Cytotoxicity in mouse BV2 cells assessed as cell viability at 1 uM incubated for 48 hrs by MTT assay (reference value: 100%); format: cell-based, BV-2; details: read-out: Activity
[17] = Cytotoxicity in mouse BV2 cells assessed as cell viability at 5 uM incubated for 48 hrs by MTT assay (reference value: 100%); format: cell-based, BV-2; details: read-out: Activity
[18] = Cytotoxicity in mouse BV2 cells assessed as cell viability at 10 uM incubated for 48 hrs by MTT assay (reference value: 100%); format: cell-based, BV-2; details: read-out: Activity
[19] = Cytotoxicity in mouse BV2 cells assessed as cell viability at 15 uM incubated for 48 hrs by MTT assay (reference value: 100%); format: cell-based, BV-2; details: read-out: Activity
[20] = Cytotoxicity in mouse BV2 cells assessed as cell viability at 20 uM incubated for 48 hrs by MTT assay (reference value: 100%); format: cell-based, BV-2; details: read-out: Activity
[21] = Cytotoxicity in mouse BV2 cells assessed as cell viability at 40 uM incubated for 48 hrs by MTT assay (reference value: 100%); format: cell-based, BV-2; details: read-out: Activity
[22] = Cytotoxicity in mouse BV2 cells assessed as cell viability at 60 uM incubated for 48 hrs by MTT assay (reference value: 100%); format: cell-based, BV-2; details: read-out: Activity
[23] = Cytotoxicity in mouse BV2 cells assessed as cell viability at 80 uM incubated for 48 hrs by MTT assay (reference value: 100%); format: cell-based, BV-2; details: read-out: Activity
[24] = Cytotoxicity in mouse BV2 cells assessed as cell viability at 100 uM incubated for 48 hrs by MTT assay (reference value: 100%); format: cell-based, BV-2; details: read-out: Activity
BV-2 [25] = assay: Inhibition of LPS-induced nitric oxide production in mouse BV2 cells assessed as nitric oxide level at 10 uM pre-incubated before LPS stimulation by Griess reagent based assay (reference value: 121.09%); format: functional; set-up: scale not given: the % may be the effect or the level left
BV-2 [26] = assay: Inhibition of LPS-induced nitric oxide production in mouse BV2 cells assessed as nitric oxide level at 20 uM pre-incubated before LPS stimulation by Griess reagent based assay (reference value: 121.09%); format: functional; set-up: scale not given: the % may be the effect or the level left
BV-2 [27] = assay: Inhibition of LPS-induced TNFalpha production in mouse BV2 cells assessed as TNFalpha level at 10 uM pre-incubated before LPS stimulation by ELISA (reference value: 142.71%); format: functional; set-up: scale not given: the % may be the effect or the level left
BV-2 [28] = assay: Inhibition of LPS-induced TNFalpha production in mouse BV2 cells assessed as TNFalpha level at 20 uM pre-incubated before LPS stimulation by ELISA (reference value: 142.71%); format: functional; set-up: scale not given: the % may be the effect or the level left
BV-2 [29] = assay: Inhibition of LPS-induced IL6 production in mouse BV2 cells assessed as IL6 level at 10 uM pre-incubated before LPS stimulation by ELISA (reference value: 146.75%); format: functional; set-up: scale not given: the % may be the effect or the level left
BV-2 [30] = assay: Inhibition of LPS-induced IL6 production in mouse BV2 cells assessed as IL6 level at 20 uM pre-incubated before LPS stimulation by ELISA (reference value: 146.75%); format: functional; set-up: scale not given: the % may be the effect or the level left
BV-2 [31] = assay: Inhibition of LPS-induced MMP9 production production in mouse BV2 cells assessed as MMP9 protein level pre-incubated before LPS stimulation by gelatin zymography (reference value: 105.113%); format: functional; set-up: scale not given: the % may be the effect or the level left
BV-2 [32] = assay: Inhibition of LPS-induced MMP2 production production in mouse BV2 cells assessed as MMP2 protein level pre-incubated before LPS stimulation by gelatin zymography (reference value: 105.071%); format: functional; set-up: scale not given: the % may be the effect or the level left

## O=C1COCCN1c1ccc(/N=C\c2cn(C(=O)c3ccc(Cl)cc3)c3ccccc23)cc1
BV-2 [1]
  IC50: > 100 µM
BV-2 [2]
  Activity: Active
BV-2 [3]
  Activity: Active
[4]
  inhibition: inactive
BV-2 [5]
  inhibition at 10 µM: 60.5%
BV-2 [6]
  inhibition at 20 µM: 70.9%
BV-2 [7]
  inhibition at 10 µM: 47.9%
BV-2 [8]
  inhibition at 20 µM: 52.9%
Mus musculus [9]
  inhibition: Active
[10]
  inhibition: Active
BV-2 [11]
  inhibition: Active
BV-2 [12]
  inhibition: Active
Mus musculus [13]
  Activity: Non-Toxic
Mus musculus [14]
  inhibition in vivo at 10 mg/kg: 74.9%
[15]
  viability at 48 h, 0.5 µM: 95.2%
[16]
  viability at 48 h, 1 µM: 97.6%
[17]
  viability at 48 h, 5 µM: 93.6%
[18]
  viability at 48 h, 10 µM: 90.1%
[19]
  viability at 48 h, 15 µM: 105%
[20]
  viability at 48 h, 20 µM: 99%
[21]
  viability at 48 h, 40 µM: 96.6%
[22]
  viability at 48 h, 60 µM: 84.2%
[23]
  viability at 48 h, 80 µM: 90.3%
[24]
  viability at 48 h, 100 µM: 80.5%
BV-2 [25]
  Activity: 100.905%
BV-2 [26]
  Activity: 100.905%
BV-2 [27]
  Activity: 56.34%
BV-2 [28]
  Activity: 41.58%
BV-2 [29]
  Activity: 76.51%
BV-2 [30]
  Activity: 69.12%
BV-2 [31]
  Activity: 89.261%
BV-2 [32]
  Activity: 84.884%
